Experimental data: patent US4175081A, “5-Substituted thiadiazole ureas” (priority 1977, dated 1979)

Tests used:
Crabgrass (CG) [1] = assay: Pre-emergence herbicide test; assay type: in vivo, Digitaria sanquinalis; settings: Digitaria sanguinalis, pre-emergence, 336 h, two weeks after treatment
Outline: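 Crabgrass (Digitaria sanquinalis) was surface seeded in 3' plastic pots of potting soil, covered with screened soil, and watered by sub-irrigation in greenhouse trays. Pots were seeded one day before spraying in a hood with a moving belt and fixed nozzle. Plants stayed in the greenhouse on sub-irrigation, and pre-emergence control was rated visually two weeks after treatment.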

[2] = system: Yellow foxtail grass (YF); assay: Pre-emergence herbicide test; assay type: in vivo, Setaria glauca; settings: Setaria, 336 h, two weeks after treatment
Outline: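 Seeds surface-sown in potting soil one day before spraying; compounds applied pre-emergence at 8 or 4 lbs/acre in 38 gallons/acre spray. Pots held in greenhouse with sub-irrigation only. Injury or control rated visually two weeks after treatment.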

Johnson grass (JG) [3] = assay: Pre-emergence herbicide test; assay type: in vivo, Sorgum helepense; settings: Sorghum halepense, 336 h, two weeks after treatment
Outline: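 Pots seeded one day before spraying; compound applied pre-emergence at 8 lbs/acre (or 4 lbs/acre) in 38 gallons/acre spray volume. Sub-irrigated in greenhouse; injury/control rated visually two weeks after treatment.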

Barnyard grass (BG) [4] = assay: Pre-emergence herbicide test; assay type: in vivo; settings: Echinochloa crus-galli, 336 h, two weeks after treatment
Outline: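 Barnyard grass surface-seeded in potting soil and sprayed pre-emergence one day after seeding, at 8 or 4 lb compound/acre in 38 gal/acre spray volume. Pots kept in greenhouse with sub-irrigation only; injury or control rated visually two weeks after treatment.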

Amaranth pigweed (PW) [5] = assay: Pre-emergence herbicide test; assay type: in vivo, Amaranthus retroflexus; settings: 336 h, two weeks after treatment
Outline: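 Pigweed was surface-seeded in potted soil one day before spraying at 8 lbs compound per acre, or 4 lbs/acre, in 38 gallons per acre. Pots were kept in the greenhouse with sub-irrigation only; injury or control was rated visually two weeks after treatment.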

Turnip (TP) [6] = assay: Pre-emergence herbicide test; assay type: in vivo, Brassica sp.; settings: Brassica rapa, pre-emergence, 336 h, two weeks after treatment
Outline: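 Turnip (Brassica sp.) seeds were surface sown in 3' plastic pots of potting soil, covered with a thin layer of screened soil, and sub-irrigated in greenhouse trays. Pots were seeded one day ahead of treatment, sprayed pre-emergence under a hood with a fixed nozzle and moving belt, then kept in the greenhouse.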

Cotton (CT) [7] = assay: Pre-emergence herbicide test; assay type: in vivo, Gossypium hirsutum var. DPL smooth leaf; settings: Gossypium hirsutum, 336 h, two weeks after treatment
Outline: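 Crop and weed species seeded one day before treatment, then sprayed pre-emergence at 8 lbs actual compound per acre (also 4 lbs/acre formulations) in 38 gallons per acre. Pots kept in greenhouse with sub-irrigation only; injury or control visually rated two weeks after treatment.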

Corn (CN) [8] = assay: Pre-emergence herbicide test; assay type: in vivo; settings: Zea mays, 336 h, two weeks after treatment
Outline: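 Four corn seeds per pot, sown at seed-diameter depth one day before spraying, got soil surface treatment at 8 lbs/acre (4 lbs/acre formulations also prepared) in 38 gallons/acre. Pots were greenhouse-held with sub-irrigation only. Injury or control was scored visually two weeks after treatment.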

Bean (BN) [9] = assay: Pre-emergence herbicide test; assay type: in vivo, Phaseolus vulgaris var. Black Valentine; settings: Phaseolus vulgaris, 336 h, two weeks after treatment
Outline: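 Black Valentine bean was seeded in potting soil one day before spraying. Compound was applied pre-emergence at 8 lbs/acre (also 4 lbs/acre) in 38 gallons per acre. Plants were sub-irrigated and injury or control was rated visually after two weeks.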

Crabgrass (CG) [10] = assay: Post-emergence herbicide test; assay type: in vivo, Digitaria sanquinalis; settings: Digitaria sanguinalis, post-emergence, 336 h, two weeks after treatment
Outline: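 Crabgrass (Digitaria sanquinalis) was surface seeded individually in 3' plastic pots of potting soil, covered with screened soil, and watered by sub-irrigation in greenhouse trays. Planting was staggered so seedlings reached the target stage together. Post-emergence sprays were applied in a hood with a removable belt and fixed nozzle, and control was visually rated two weeks after treatment.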

[11] = system: Yellow foxtail grass (YF); assay: Post-emergence herbicide test; assay type: in vivo, Setaria glauca; settings: Setaria, 336 h, two weeks after treatment
Outline: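 Potted seedlings grown in greenhouse, planting staggered to reach the target stage together, then sprayed post-emergence at 8 lbs actual compound/acre in 38 gallons/acre (4 lbs/acre formulations also prepared). Sub-irrigated afterwards. Injury or control rated visually two weeks after treatment.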

Johnson grass (JG) [12] = assay: Post-emergence herbicide test; assay type: in vivo, Sorgum helepense; settings: Sorghum halepense, 336 h, two weeks after treatment
Outline: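 Greenhouse pot-grown seedlings sprayed post-emergence at 8 lbs compound per acre (some at 4 lbs/acre) in 38 gallons per acre spray volume. Sub-irrigated thereafter. Injury/control rated visually two weeks after treatment.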

Barnyard grass (BG) [13] = assay: Post-emergence herbicide test; assay type: in vivo; settings: Echinochloa crus-galli, 336 h, two weeks after treatment
Outline: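 Greenhouse pot-grown barnyard grass seedlings sprayed post-emergence at 8 lbs active compound per acre (some at 4 lbs/acre) in 38 gallons per acre, then sub-irrigated. Injury or control rated visually two weeks after treatment.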

Amaranth pigweed (PW) [14] = assay: Post-emergence herbicide test; assay type: in vivo, Amaranthus retroflexus; settings: 336 h, two weeks after treatment
Outline: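 Pot-grown pigweed was sprayed post-emergence at the 1–2 true-leaf stage with compound at rates equivalent to 8 lbs per acre (formulations also prepared for 4 lbs/acre) in 38 gallons per acre, using a hood with fixed nozzle. Plants were sub-irrigated in the greenhouse, and injury or control was rated visually two weeks after treatment.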

Turnip (TP) [15] = assay: Post-emergence herbicide test; assay type: in vivo, Brassica sp.; settings: Brassica rapa, post-emergence, 336 h, two weeks after treatment
Outline: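 A greenhouse post-emergence herbicide test on turnip. Seeds were sown on the surface of potting soil in 3' plastic pots, lightly covered with screened soil and watered from below. Planting was timed so seedlings had 1 or 2 true leaves above the cotyledons at spraying, done in a hood with a fixed nozzle. Control or injury was scored by eye after two weeks.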

Cotton (CT) [16] = assay: Post-emergence herbicide test; assay type: in vivo, Gossypium hirsutum var. DPL smooth leaf; settings: Gossypium hirsutum, post-emergence, 336 h, two weeks after treatment
Outline: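 Cotton (Gossypium hirsutum var. DPL smooth leaf) was grown in 3' plastic pots of potting soil, four seeds per pot, planted at a depth equal to the seed diameter and watered by sub-irrigation. At the stage of expanded cotyledons with the first true leaf 1' long, plants were sprayed post-emergence in a hood with a fixed nozzle over a moving belt. Percent control was rated visually two weeks later.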

Corn (CN) [17] = assay: Post-emergence herbicide test; assay type: in vivo; settings: Zea mays, 336 h, two weeks after treatment
Outline: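 Greenhouse seedlings grown in potting soil and sprayed post-emergence at 8 lbs compound/acre (formulations also made for 4 lbs/acre) in 38 gallons/acre spray volume. Watering by sub-irrigation only. Injury or control rated visually two weeks after treatment.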

Bean (BN) [18] = assay: Post-emergence herbicide test; assay type: in vivo, Phaseolus vulgaris var. Black Valentine; settings: Phaseolus vulgaris, post-emergence, 336 h, two weeks after treatment
Outline: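 Snapbean (Phaseolus vulgaris var. Black Valentine) was tested post-emergence. Four seeds were sown in 3' plastic pots of potting soil at a depth equal to the seed diameter, then sub-irrigated in greenhouse trays. Planting dates were staggered so plants were sprayed once primary leaves had expanded, with the growing point at the primary leaf nodes.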

[19] = system: variety of crops and weed species; assay: Pre- and post-emergence herbicide tests, overall assessment of Tables III-VI; assay type: in vivo; settings: data of Tables III-VI
Outline: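 Crops and weeds grown in potting soil were sprayed at 8 lbs. compound per acre in 38 gallons per acre, pre-emergence pots seeded one day before treatment. Injury or control was visually rated two weeks after treatment.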

Which results are given for `CCN(C(=O)NC)c1nnc(C(F)(F)F)s1` [Example 37]?
pest or weed control (Crabgrass (CG) [1]; 2 lb/acre): 90%; pest or weed control at 4483.4 g/ha (Crabgrass (CG) [1]; 4 lb/acre): 90%; pest or weed control at 8966.8 g/ha (Crabgrass (CG) [1]; 8 lb/acre): 90%; pest or weed control at 2241.7 g/ha ([2]; 2 lb/acre): 70%; pest or weed control at 4483.4 g/ha ([2]; 4 lb/acre): 80%; pest or weed control at 8966.8 g/ha ([2]; 8 lb/acre): 90%; pest or weed control at 2241.7 g/ha (Johnson grass (JG) [3]; 2 lb/acre): 60%; pest or weed control at 4483.4 g/ha (Johnson grass (JG) [3]; 4 lb/acre): 70%; pest or weed control at 8966.8 g/ha (Johnson grass (JG) [3]; 8 lb/acre): 60%; pest or weed control at 2241.7 g/ha (Barnyard grass (BG) [4]; 2 lb/acre): 50%; pest or weed control at 4483.4 g/ha (Barnyard grass (BG) [4]; 4 lb/acre): 60%; pest or weed control at 8966.8 g/ha (Barnyard grass (BG) [4]; 8 lb/acre): 90%; pest or weed control at 2241.7 g/ha (Amaranth pigweed (PW) [5]; 2 lb/acre): 90%; pest or weed control at 4483.4 g/ha (Amaranth pigweed (PW) [5]; 4 lb/acre): 100%; pest or weed control at 8966.8 g/ha (Amaranth pigweed (PW) [5]; 8 lb/acre): 100%; pest or weed control at 2241.7 g/ha (Turnip (TP) [6]; 2 lb/acre): 100%; pest or weed control at 4483.4 g/ha (Turnip (TP) [6]; 4 lb/acre): 100%; pest or weed control at 8966.8 g/ha (Turnip (TP) [6]; 8 lb/acre): 100%; pest or weed control at 2241.7 g/ha (Cotton (CT) [7]; 2 lb/acre): 40%; pest or weed control at 4483.4 g/ha (Cotton (CT) [7]; 4 lb/acre): 40%; pest or weed control at 8966.8 g/ha (Cotton (CT) [7]; 8 lb/acre): 60%; pest or weed control at 2241.7 g/ha (Corn (CN) [8]; 2 lb/acre): 30%; pest or weed control at 4483.4 g/ha (Corn (CN) [8]; 4 lb/acre): 40%; pest or weed control at 8966.8 g/ha (Corn (CN) [8]; 8 lb/acre): 50%; pest or weed control at 2241.7 g/ha (Bean (BN) [9]; 2 lb/acre): 80%; pest or weed control at 4483.4 g/ha (Bean (BN) [9]; 4 lb/acre): 70%; pest or weed control at 8966.8 g/ha (Bean (BN) [9]; 8 lb/acre): 90%; pest or weed control (Crabgrass (CG) [10]; 2 lb/acre): 30%; pest or weed control at 4483.4 g/ha (Crabgrass (CG) [10]; 4 lb/acre): 40%; pest or weed control at 8966.8 g/ha (Crabgrass (CG) [10]; 8 lb/acre): 90%; pest or weed control ([11]; 2 lb/acre): 30%; pest or weed control at 4483.4 g/ha ([11]; 4 lb/acre): 50%; pest or weed control at 8966.8 g/ha ([11]; 8 lb/acre): 90%; pest or weed control (Johnson grass (JG) [12]; 2 lb/acre): 20%; pest or weed control at 4483.4 g/ha (Johnson grass (JG) [12]; 4 lb/acre): 30%; pest or weed control at 8966.8 g/ha (Johnson grass (JG) [12]; 8 lb/acre): 70%; pest or weed control at 2241.7 g/ha (Barnyard grass (BG) [13]; 2 lb/acre): 20%; pest or weed control at 4483.4 g/ha (Barnyard grass (BG) [13]; 4 lb/acre): 30%; pest or weed control at 8966.8 g/ha (Barnyard grass (BG) [13]; 8 lb/acre): 90%; pest or weed control at 2241.7 g/ha (Amaranth pigweed (PW) [14]; 2 lb/acre): 90%; pest or weed control at 4483.4 g/ha (Amaranth pigweed (PW) [14]; 4 lb/acre): 100%; pest or weed control at 8966.8 g/ha (Amaranth pigweed (PW) [14]; 8 lb/acre): 100%; pest or weed control at 2241.7 g/ha (Turnip (TP) [15]; 2 lb/acre): 90%; pest or weed control at 4483.4 g/ha (Turnip (TP) [15]; 4 lb/acre): 90%; pest or weed control at 8966.8 g/ha (Turnip (TP) [15]; 8 lb/acre): 100%; pest or weed control at 2241.7 g/ha (Cotton (CT) [16]; 2 lb/acre): 100%; pest or weed control at 4483.4 g/ha (Cotton (CT) [16]; 4 lb/acre): 100%; pest or weed control at 8966.8 g/ha (Cotton (CT) [16]; 8 lb/acre): 100%; pest or weed control (Corn (CN) [17]; 2 lb/acre): 20%; pest or weed control at 4483.4 g/ha (Corn (CN) [17]; 4 lb/acre): 80%; pest or weed control at 8966.8 g/ha (Corn (CN) [17]; 8 lb/acre): 80%; pest or weed control at 2241.7 g/ha (Bean (BN) [18]; 2 lb/acre): 90%; pest or weed control at 4483.4 g/ha (Bean (BN) [18]; 4 lb/acre): 100%; pest or weed control at 8966.8 g/ha (Bean (BN) [18]; 8 lb/acre): 100%; herbicidal effectiveness / selectivity, in words [19]: extremely effective when applied to a variety of crops and weed species
